Source: patent US11396499B2, “Lysosomal acid lipase assay” (University of Washington, priority 2018, dated 2022)
“And” between values parts separate entries of the source, which are not always exact repeats. Equal entries are not always repeated.

Experiments:
[1] = target: T1, lysosomal acid lipase (LAL) (Homo sapiens, UniProt P38571); test: LAL assay development: replacement of cardiolipin by phospholipids and of Triton X-100 by detergent; format: biochemical; settings: for change of LAL activity over that measured with cardiolipin: phospholipid tested individually at 0.1 mmol/L as replacement for cardiolipin
T1 construct: from tissue; host or cells: dried blood spots (DBS) from healthy adults, healthy children and LAL-deficient patients
T1 sequence (P38571 77-399): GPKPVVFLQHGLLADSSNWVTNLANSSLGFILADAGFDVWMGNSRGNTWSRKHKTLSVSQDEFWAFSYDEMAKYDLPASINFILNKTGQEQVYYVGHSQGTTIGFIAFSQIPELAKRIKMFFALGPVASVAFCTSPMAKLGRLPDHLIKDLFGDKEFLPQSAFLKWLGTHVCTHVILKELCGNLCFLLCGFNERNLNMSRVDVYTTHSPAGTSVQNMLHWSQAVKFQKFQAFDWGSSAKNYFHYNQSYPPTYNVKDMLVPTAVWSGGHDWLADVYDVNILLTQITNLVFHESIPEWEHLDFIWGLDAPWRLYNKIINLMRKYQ
Protocol: A variety of phospholipids were evaluated as replacements for cardiolipin, which was used in the original LAL assay described by Hamilton et al. (Clin Chim Acta 2012; 413:1207-10). The following phospholipids were tested individually at 0.1 mmol/L: 1,2-dioleoyl-phosphatidylethanolamine, 1,2-dioleoyl-phosphatidylmethanol, 1,2-dioleoyl-phosphatidylcholine, 1,2-dioleoyl-phosphatidylserine, brain phosphatidylethanolamine, 1,2-heptadecyl-phosphatidylcholine, and 1,2-lauryl-phosphatidylcholine.
The original LAL assay described by Hamilton et al. (Clin Chim Acta 2012; 413:1207-10) used Triton X-100 as the detergent, which was replaced this with sodium taurodeoxycholate because this detergent largely remains in the aqueous phase following liquid-liquid extraction with ethyl acetate (thus minimizing injection of large amounts of detergent onto the UPLC column). […] Thus, 2.5 mmol/L was chosen for all subsequent studies.

[2] = tested on: lysosomal acid lipase (LAL); test: UPLC-MS/MS LAL assay in dried blood spots (DBS) with substrate P-PMHC; format: biochemical, human
Protocol: Assay mixture was prepared by combining 9 volumes of 0.1 mol/L sodium acetate buffer (made by adding reagent grade NaOH to 0.1 mol/L reagent-grade acetic acid in water), pH 4.5, containing 2.5 mmol/L sodium taurodeoxycholate hydrate (Sigma, 287245) with 1 volume of 0.5% (w/v) bovine heart cardiolipin in ethanol (Sigma, C1649) containing 3 mmol/L substrate palmitoyl 4-propyl-8-methyl-7-hydroxycoumarin (P-PMHC) and 50 μmol/L carbon-13-labeled 4-propyl-8-methyl-7-hydroxycoumarin (internal standard). The latter was prepared by mixing solid substrate P-PMHC with internal standard solution in absolute ethanol, removing solvent in a centrifugal concentrator under vacuum (or with a jet of nitrogen), and then mixing with commercial cardiolipin/ethanol solution. This ethanol stock could be stored at −20° C. for several months (avoid>2-3 freeze-thaw cycles), and the aqueous buffer could be stored at 4° C. for several months. This was based on no change in assay results when new and stored solutions were used. Assay mixture was made fresh before each use.
To a 3-mm punch from a DBS in a 1.5-mL polypropylene Eppendorf tube was added 200 μL of purified water (Milli-Q, EMD Millipore). The tubes were shaken on an orbital platform shaker for 1 h at ambient temperature. The tube of DBS extract was mixed briefly on a vortex-type mixer, and a 10 μL aliquot was added to the well of a polypropylene, deep-well, 96-well plate (Costar, 3959). Assay mixture (30 μL, ambient temperature) was added to each well. The plate was centrifuged at 3000 g for 5 min at ambient temperature to ensure that all liquid was at the well bottom. The plate was sealed with a film cover (Advantage 96-well round clear Silicone/PTFE cap mat 962611). The plate was shaken at 37° C. in an incubator with orbital mixing at 400 rpm for 3 h. The reactions were quenched by addition of 80 μL of purified water (Milli-Q, EMD Millipore) followed by 400 μL of HPLC-grade ethyl acetate. The well contents were mixed by pipetting up and down approximately 10 times. The plate was centrifuged at 3000 g for 5 min at ambient temperature, and then 120 μL of the upper ethyl acetate layer was transferred to a shallow-well, 96-well polypropylene plate (Greigner, 651201). Solvent was removed at ambient temperature with a jet of nitrogen. To each well was added 200 μL of water/methanol (1:1, Fisher Optima Grade), and samples were mixed by pipetting up and down a few times. The plate was wrapped with aluminum foil and placed in the autosampler chamber at 8° C. in preparation for LC-MS/MS analysis.
Liquid chromatography was carried out using a Waters Acquity binary solvent pump system with a CSH, C18, 1.7-μm, 2.1×50-mm column (Waters, 186005296) and a CSH, C18, 1.7-μm guard column (Vanguard, 186005303). The solvent program was 99% A (70:30, water/acetonitrile, 0.1% formic acid, Fisher Optima grade)/1% B (50:50, acetonitrile/isopropanol, 0.1% formic acid) to 30% A/70% B over 1 min, then jump to 100% B and hold for 0.5 min, then to 99% A over 0.5 min (flow rate 0.8 mL/min). The total run time was 2.5 min. Mass spectrometry was carried out with a Waters Xevo TQ tandem-quadrupole instrument.

[3] = target: T1, lysosomal acid lipase (LAL); test: Testing the library of palmitoyl-4MU analogs as LAL substrates with DBS, with and without Lalistat-2, UPLC-MS/MS; format: biochemical; settings: for overall ranking in the library (activity and LAL specificity): library of 25 compounds
Protocol: The library of palmitoyl-4MU analogs was tested as LAL substrates as follows. Assay cocktail was a solution of 10:1 buffer to substrate stock, each warmed to 37° C. The substrate stock contained 3.7 mM substrate and 0.5% cardiolipin in ethanol. The buffer contained 0.15 M sodium acetate, pH 4.0, and 2.5 mM sodium taurodeoxycholate. Rehydrated blood mixture (40 mL) was combined with 10 mL of H2O or 30 mM Lalistat-2 in an Eppendorf 1.5 mL polypropylene tube and pre-incubated for 15 min at 37° C. with orbital shaking at 250 rpm. Assay cocktail (100 or 150 mL) was added and samples were incubated for 3 hr at 37° C. with orbital shaking at 250 rpm. Assay was quenched by first flash freezing to −80° C. followed by subsequent addition of 400 mL of ethyl acetate and thawing. Samples were then vortexed and centrifuged at 2700×g for 5 min. Top ethyl acetate layer (200 mL) was transferred to an autosampler plate and blown dry under nitrogen gas then resuspended in 1:1 H2O:methanol solution, and […] per well injected for analysis by UPLC-MS/MS. The LC-MS/MS data was converted into mmole of product by using an external standard of 2.5 nmole (the individual corresponding coumarins) spiked into 40 mL rehydrated blood in a 1.5 mL Eppendorf polypropylene tube incubated separately from the assay cocktail, which were quenched immediately following incubation. Additional controls included a Lalistat-2 inhibited rehydrated DBS solution incubated separately from the assay cocktail then combined and immediately quenched as a blank. Unique duplicate spiked controls and blank controls were used for each coumarin analog.

[4] = target: T1, lysosomal acid lipase (LAL); test: Previous fluorometric LAL assay (Hamilton et al.) with palmitoyl-4MU with and without Lalistat-2 in DBS; format: biochemical; settings: same DBS extract, substrate palmitoyl-4MU, 10 μmol/L Lalistat-2
From the text: LAL is detected in leukocytes or fibroblasts using radiometric, immunologic, or fluorescence assays (The metabolic and molecular bases of inherited disease. 8th Ed. New York (NY): McGraw-Hill; 2001. p. 3827-3387). Hamilton and colleagues recently developed a fluorometric assay to detect LAL in dried blood spots (DBS) (Hamilton et al., Clin Chim Acta 2012; 413:1207-10). The assay is based on the release of 4-methylumbelliferone from its ester with palmitic acid. However, the substrate is not specific for LAL, and the method requires two assays performed in parallel, the first in the presence of a LAL-specific covalent inactivator Lalistat-2. LAL activity is calculated from the difference in these 2 assays.
A concentration of P-PMHC in the mixture of 3 mmol/L was settled on based on a combination of high LAL activity and minimal background. The original assay described by Hamilton et al. (Clin Chim Acta 2012; 413:1207-10) used 40 μL of an aqueous extract of a 3-mm DBS added to 160 μL of assay mixture. To keep the solvent volumes for the liquid-liquid extraction to a minimum, thus avoiding long times for solvent removal, 10 μL of an aqueous extract of a 3-mm DBS punch was added to 30 μL of assay mixture.

CCCCCCCC/C=C\CCCCCCCC(=O)OC[C@H](COP(=O)(O)OCCN)OC(=O)CCCCCCC/C=C\CCCCCCCC [1,2-dioleoyl-phosphatidylethanolamine]
change of LAL activity over that measured with cardiolipin [1]: None of these phospholipids led to any substantial increase in LAL

CCCCCCCC/C=C\CCCCCCCC(=O)OC[C@H](COP(=O)([O-])OCC[N+](C)(C)C)OC(=O)CCCCCCC/C=C\CCCCCCCC [1,2-dioleoyl-phosphatidylcholine]
change of LAL activity over that measured with cardiolipin [1]: None of these phospholipids led to any substantial increase in LAL

CCCCCCCCCCCCCCCC(=O)Oc1ccc2c(CCC)cc(=O)oc2c1C [Compound 1, 4-propyl-8-methyl-7-palmitoyloxycoumarin]
Activity without Lalistat-2 ([2]; LAL activity toward substrate P-PMHC, tandem mass spectrometry, DBS of Adult 1 (r9) / Adult 2 (r10), triplicate, blank corrected): 519 µmol/h/L and 539 µmol/h/L and 473 µmol/h/L and 554 µmol/h/L and 582 µmol/h/L | specific activity ([2]; final assay conditions, 3-mm punch of a DBS from a healthy adult, UPLC-MS/MS): 874 µmol/h/L | specificity of the substrate for LAL in DBS ([2]; from Lalistat-2 inhibition and LAL-deficient patients, listed as P-PMHC): highly specific for LAL in DBS | LAL activity in DBS of LAL-deficient patients ([2]; six LAL-deficient patients, UPLC-MS/MS, no Lalistat-2): close to zero | substrate activity with DBS as the source of LAL compared to palmitoyl-4MU ([3]; 3.7 mM substrate stock, 3 hr 37° C.): more active than palmitoyl-4MU | overall ranking in the library (activity and LAL specificity) [3]: highest combination of total lipase activity and LAL-specificity | overall ranking in the library (activity and LAL specificity) ([3]; listed as P-PMHC): best combination of high specific activity on LAL and high specificity for LAL

C[C@H](CCC(=O)NCCS(=O)(=O)[O-])[C@H]1CC[C@H]2[C@@H]3CC[C@@H]4C[C@H](O)CC[C@]4(C)[C@H]3C[C@H](O)[C@]12C.[Na+] [sodium taurodeoxycholate]
decrease of LAL activity on replacement of Triton X-100 ([1]; 2.5 mmol/L sodium taurodeoxycholate): 20%

CCCCCCCC/C=C\CCCCCCCC(=O)OC[C@H](COP(=O)(O)OC[C@H](N)C(=O)O)OC(=O)CCCCCCC/C=C\CCCCCCCC [1,2-dioleoyl-phosphatidylserine]
change of LAL activity over that measured with cardiolipin [1]: None of these phospholipids led to any substantial increase in LAL

CCCCCCCCCCCCCCCCC(=O)OC[C@H](COP(=O)([O-])OCC[N+](C)(C)C)OC(=O)CCCCCCCCCCCCCCCC [1,2-heptadecyl-phosphatidylcholine]
change of LAL activity over that measured with cardiolipin [1]: None of these phospholipids led to any substantial increase in LAL

CCCCCCCCCCCC(=O)OC[C@H](COP(=O)([O-])OCC[N+](C)(C)C)OC(=O)CCCCCCCCCCC [1,2-lauryl-phosphatidylcholine]
change of LAL activity over that measured with cardiolipin [1]: None of these phospholipids led to any substantial increase in LAL

CCCCCCCC/C=C\CCCCCCCC(=O)OCC(COP(=O)(O)OC)OC(=O)CCCCCCC/C=C\CCCCCCCC (centres unmarked) [1,2-dioleoyl-phosphatidylmethanol]
change of LAL activity over that measured with cardiolipin [1]: None of these phospholipids led to any substantial increase in LAL

O=C(Oc1nsnc1N1CCCCC1)N1CCCCC1 [Lalistat-2, reference compound]
total lipase activity blocked [4]: 78% | inhibition of the activity toward P-PMHC ([2]; DBS extracts from two healthy persons preincubated with 10 μmol/L Lalistat-2): 98% | inhibition of the activity toward P-PMHC ([2]; DBS extracts preincubated with 100 μmol/L Lalistat-2): 99%
